Measured values taken from ChEMBL document CHEMBL5360546, “Identification and characterisation of the tegument-expressed aldehyde dehydrogenase SmALDH_312 of Schistosoma mansoni, a target of disulfiram” (Eur J Med Chem, 2023).
The source made the active and inactive calls. The rule behind the calls is not given here.

How the values were obtained:
[1] = Inhibition of recombinant Schistosoma mansoni ALDH312 expressed in baculovirus Sf9 cells in presence of NADPH
[2] = target: T1, Aldehyde dehydrogenase, mitochondrial (Homo sapiens) (UniProt P05091); experiment: Inhibition of human ALDH2 at 100 uM in presence of NADPH
T1 sequence (whole entry): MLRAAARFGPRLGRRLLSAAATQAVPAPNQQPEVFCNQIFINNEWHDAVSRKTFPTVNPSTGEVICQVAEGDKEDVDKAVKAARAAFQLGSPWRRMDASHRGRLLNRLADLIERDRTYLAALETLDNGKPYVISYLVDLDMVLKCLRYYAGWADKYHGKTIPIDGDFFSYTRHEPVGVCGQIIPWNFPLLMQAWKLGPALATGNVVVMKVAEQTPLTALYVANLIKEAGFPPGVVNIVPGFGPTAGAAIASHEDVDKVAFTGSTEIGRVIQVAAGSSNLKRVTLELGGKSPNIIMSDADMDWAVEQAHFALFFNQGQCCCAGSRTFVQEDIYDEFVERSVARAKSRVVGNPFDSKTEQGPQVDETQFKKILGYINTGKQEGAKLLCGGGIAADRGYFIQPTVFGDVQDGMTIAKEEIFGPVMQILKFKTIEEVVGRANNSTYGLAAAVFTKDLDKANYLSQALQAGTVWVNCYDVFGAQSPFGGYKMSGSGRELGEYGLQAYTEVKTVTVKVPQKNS

[3] = Inhibition of recombinant Schistosoma mansoni ALDH312 expressed in baculovirus Sf9 cells at 100 uM in presence of NADPH relative to control
Schistosoma mansoni [4] = experiment: Antischistosomal activity against Schistosoma mansoni couple assessed as decrease in couple attachment at 25 uM measured upto 3 days; type: functional, organism-based; settings: time <= 3.0 day
Schistosoma mansoni [5] = experiment: Induction of morphological changes in Schistosoma mansoni couple assessed as effect on gonads internal structure at 10 uM by confocal laser scanning microscopy analysis; type: functional, organism-based
Schistosoma mansoni [6] = experiment: Antischistosomal activity against Schistosoma mansoni couple assessed as couple separation at 100 uM measured at day 1 relative to control; type: functional; settings: time 1 day
Schistosoma mansoni [7] = experiment: Antischistosomal activity against Schistosoma mansoni larva assessed as lethality at 500 nM measured after 72 hrs by Trypan blue staining based analysis; type: functional, organism-based
Schistosoma mansoni [8] = experiment: Upregulation of Smnanos2 transcript level in Schistosoma mansoni female at 10 uM measured after 72 hrs by qRT-PCR analysis; type: functional
Schistosoma mansoni [9] = experiment: Downregulation of Smnanos1 transcript level in Schistosoma mansoni male at 10 to 25 uM measured after 72 hrs by qRT-PCR analysis; type: functional; settings: dose 10-25 µM
Schistosoma mansoni [10] = experiment: Induction of morphological changes in male Schistosoma mansoni assessed as formation of blebs at 25 uM by confocal laser scanning microscopy analysis; type: functional, organism-based
Schistosoma mansoni [11] = experiment: Downregulation of Smaldh312 level in Schistosoma mansoni male at 10 uM measured after 72 hrs by qRT-PCR analysis; type: functional
Schistosoma mansoni [12] = experiment: Induction of morphological changes in female Schistosoma mansoni assessed as formation of ruptures at 25 uM by confocal laser scanning microscopy analysis; type: functional, organism-based
Schistosoma mansoni [13] = experiment: Induction of morphological changes in Schistosoma mansoni couple assessed as tubercles rupture at 10 to 25 uM by confocal laser scanning microscopy analysis; type: functional, organism-based; settings: dose 10-25 µM
Schistosoma mansoni [14] = experiment: Induction of morphological changes in male Schistosoma mansoni assessed as degeneration of spermatogonia at 25 uM by scanning electron microscopy analysis; type: functional, organism-based
Schistosoma mansoni [15] = experiment: Downregulation of Smnanos1 transcript level in Schistosoma mansoni female at 10 to 25 uM measured after 72 hrs by qRT-PCR analysis; type: functional; settings: dose 10-25 µM
Schistosoma mansoni [16] = experiment: Induction of morphological changes in Schistosoma mansoni couple assessed as swelling of tegument at 10 to 25 uM by confocal laser scanning microscopy analysis; type: functional, organism-based; settings: dose 10-25 µM
Schistosoma mansoni [17] = experiment: Antischistosomal activity against Schistosoma mansoni couple assessed as reduction worm motility at 10 to 200 uM measured at day 3; type: functional, organism-based; settings: dose 10-200 µM, time 3.0 day
Schistosoma mansoni [18] = experiment: Induction of morphological changes in Schistosoma mansoni couple assessed as loss of structural integrity in reproductive organs at 25 uM by scanning electron microscopy analysis; type: functional, organism-based
Schistosoma mansoni [19] = experiment: Antischistosomal activity against Schistosoma mansoni couple assessed as reduction in couple attachment at 10 uM measured at day 3 relative to control; type: functional; design: scale not given: the % may be the effect or the level left; settings: time 3 day
Schistosoma mansoni [20] = experiment: Induction of morphological changes in Schistosoma mansoni couple assessed as effect on gonads tegument at 10 uM by confocal laser scanning microscopy analysis; type: functional, organism-based
Schistosoma mansoni [21] = experiment: Upregulation of Smnanos2 transcript level in Schistosoma mansoni male at 10 uM measured after 72 hrs by qRT-PCR analysis; type: functional
Schistosoma mansoni [22] = experiment: Antischistosomal activity against Schistosoma mansoni couple assessed as couple separation at 25 uM measured at day 1 relative to control; type: functional; settings: time 1 day
[23] = target: T1, Aldehyde dehydrogenase, mitochondrial (Homo sapiens); experiment: Inhibition of human ALDH2 at 100 uM in presence of NADPH relative to control
Schistosoma mansoni [24] = experiment: Antischistosomal activity against Schistosoma mansoni couple assessed as decrease in total number of eggs measured after 72 hrs; type: functional, organism-based; settings: dose 1-200 µM
Schistosoma mansoni [25] = experiment: Induction of morphological changes in male Schistosoma mansoni assessed as formation of ruptures at 25 uM by confocal laser scanning microscopy analysis; type: functional, organism-based
Schistosoma mansoni [26] = experiment: Induction of morphological changes in Schistosoma mansoni couple assessed as formation of blebs at 10 to 25 uM by confocal laser scanning microscopy analysis; type: functional, organism-based; settings: dose 10-25 µM
Schistosoma mansoni [27] = experiment: Induction of morphological changes in Schistosoma mansoni couple assessed as detachment of tegument at 10 to 25 uM by confocal laser scanning microscopy analysis; type: functional, organism-based; settings: dose 10-25 µM
Schistosoma mansoni [28] = experiment: Antischistosomal activity against Schistosoma mansoni couple assessed as couple separation at 1 uM measured after 24 to 72 hrs; type: functional, organism-based; settings: time 24-72 hrs
Schistosoma mansoni [29] = experiment: Induction of morphological changes in female Schistosoma mansoni assessed as formation of blebs at 25 uM by confocal laser scanning microscopy analysis; type: functional, organism-based
Schistosoma mansoni [30] = experiment: Antischistosomal activity against Schistosoma mansoni couple assessed as worm motility at 1 uM measured after 72 hrs; type: functional, organism-based
Schistosoma mansoni [31] = experiment: Induction of morphological changes in female Schistosoma mansoni assessed as degeneration of oocytes at 25 uM by scanning electron microscopy analysis; type: functional, organism-based
Schistosoma mansoni [32] = experiment: Inhibition of cell proliferation in Schistosoma mansoni couple assessed as reduction in EdU positive number measured after 3 days by Hoechst 33342 staining based analysis; type: functional; settings: dose 10-25 µM, time 3.0 day
[33] = Inhibition of recombinant Schistosoma mansoni ALDH312 expressed in baculovirus Sf9 cells at 50 uM in presence of NADPH relative to control

What does the source list for `CN1CCC(NCc2cccc(-c3ccc(S(=O)(=O)NCc4ccccc4)cc3)c2)CC1`?
IC50 [1]: 21.8 µM; inhibition [2]: inactive; inhibition [3]: 80.4%

With `CCN(CC)C(=S)SSC(=S)N(CC)CC` [DISULFIRAM] as the compound, how does the Activity (Schistosoma mansoni [4]) read?
Its Activity is “Active”.

And the Activity (Schistosoma mansoni [5])?
The Activity was “inactive”.

And the Activity (Schistosoma mansoni [6])?
The Activity was 100%.

What about the Activity (Schistosoma mansoni [7]) of the same compound?
The Activity was “Active”.

And the Activity (Schistosoma mansoni [8])?
Its Activity is “inactive”.

And the Activity (Schistosoma mansoni [9])?
Its Activity is “Active”.

What about the Activity (Schistosoma mansoni [10]) of the same compound?
Its Activity is “Active”.

And the Activity (Schistosoma mansoni [11])?
Its Activity is “Active”.

And the Activity (Schistosoma mansoni [12])?
Its Activity is “Active”.

And the Activity (Schistosoma mansoni [13])?
Its Activity is “Active”.

What about the Activity (Schistosoma mansoni [14]) of the same compound?
The Activity was “Active”.

And the Activity (Schistosoma mansoni [15])?
The Activity was “Active”.

And the Activity (Schistosoma mansoni [16])?
The Activity was “Active”.

And the Activity (Schistosoma mansoni [17])?
Its Activity is “Active”.

And the Activity (Schistosoma mansoni [18])?
Its Activity is “Active”.

What about the Activity (Schistosoma mansoni [19]) of the same compound?
Its Activity is 50%.

And the Activity (Schistosoma mansoni [20])?
Its Activity is “inactive”.

What about the Activity (Schistosoma mansoni [21]) of the same compound?
The Activity was “Active”.

What about the Activity (Schistosoma mansoni [22]) of the same compound?
The Activity was 50%.

What about the inhibition [23] of the same compound?
The inhibition was 99%.

What about the Activity (Schistosoma mansoni [24]) of the same compound?
The Activity was “Dose-Dependent Effect”.

And the Activity (Schistosoma mansoni [25])?
Its Activity is “Active”.

And the Activity (Schistosoma mansoni [26])?
Its Activity is “Active”.

And the Activity (Schistosoma mansoni [27])?
The Activity was “Active”.

What about the Activity (Schistosoma mansoni [28]) of the same compound?
The Activity was “inactive”.

And the Activity (Schistosoma mansoni [29])?
Its Activity is “Active”.

What about the Activity (Schistosoma mansoni [30]) of the same compound?
The Activity was “inactive”.

And the Activity (Schistosoma mansoni [31])?
Its Activity is “Active”.

What about the inhibition (Schistosoma mansoni [32]) of the same compound?
Its inhibition is “Dose-Dependent Effect”.

And the inhibition [3]?
Its inhibition is 41.2%.

What does the source list for `O=C(Nc1ccc(C(F)(F)F)c(C(F)(F)F)c1)c1cc(Cl)ccc1O`?
IC50 [1]: 7.5 µM; inhibition [33]: 100%; inhibition [2]: inactive; inhibition [3]: 100%

What does the source list for `CC(C)=CCC/C(C)=C\CNCCNC1C2CC3CC(C2)CC1C3` (stereo not given)?
IC50 [1]: 12.5 µM; inhibition [2]: Active; inhibition [3]: 100%
